Format in all cases: physicochemical
Data set [1] in a line: Determination of wetting ability by immersion (modified EN 1772:2000). To be noted: 0.1 wt.-% aqueous solution, room temperature, raw cotton disc, mean of five measurements. As to the method: This measurement was modified based on the European Standard EN 1772:2000. A 500 mL 0.1 wt.-% aqueous solution of test surfactant was prepared. The test solution was kept at room temperature to stabilize for 1 h. A raw cotton disc (30 mm diameter, wfk Testgewebe GmbH), was clamped in a gripper and immersed in the solution. Stopwatch was started at the moment when the lower part of the disc touched the solution and stopped when the disc began to sink of its own accord. The arithmetic mean of five measurements was calculated and recorded as the wetting time.

Data set [2] is described as follows: Dynamic surface tension measurements, maximum bubble pressure method. The following applies: deionized water, 25° C. The procedure:
These measurements were conducted with the Krüss PocketDyne BP2100, which utilized the maximum bubble pressure method of surface tension analysis. Surface tension profiles of dimethyl farnesyl amine oxide and diethyl farnesyl amine oxide at the desired concentration were measured in deionized water at 25° C.
The results in table 2 are given in mN/m.

Data set [3] can be described thus: Solubility in water (observation).
Data set [4] is described as follows: CMC (critical micelle concentration) and surface tension measurements, Du Noüy ring method. The following applies: 25° C., Krüss Tensiometer K 100 (Ring). As to the method: CMC (critical micelle concentration) and surface tension measurements These measurements were conducted with the Krüss Tensiometer K 100 (Ring), which utilized the Du Noüy ring method. Surface tension profiles of the amine oxides were measured at 25° C.

Data set [5] can be described thus: Measurement of foam creation and decay on a SITA foam tester. To be noted: 0.01 g/L surfactant solution, 1200 rpm, room temperature, 5 minutes foam creation; listed as dimethyl farnesyl amine oxide. As to the method:
This method monitors foam generation and decay at room temperature over time. A surfactant solution of 0.01 g/L was pumped into the SITA foam tester R2000. The speed of the stirring plate was set to 1200 rpm. Foam creation was recorded in a 10 second interval for 5 minutes and decay was recorded in a 30 second interval for 15 minutes at room temperature.

Take `CC[N+]([O-])(CC)CC=C(C)CCC=C(C)CCC=C(C)C` [Diethyl, Diethyl Farnesyl Amine Oxide, reference compound]: the Wetting time in data set [1] was 54 s. Besides, in data set [2] (0.3 g/L), the “Surface tension at surface age 20 ms” value is given as 66.7 mN/m, the “Surface tension at surface age 50 ms” value is on record as 65.6 mN/m, the “Surface tension at surface age 100 ms” value came to 64.3 mN/m and the “Surface tension at surface age 200 ms” value amounted to 65.7 mN/m. Further, the “Surface tension at surface age 400 ms” value in data set [2] (0.3 g/L) worked out at 65.0 mN/m. In data set [2] (1.0 g/L), the “Surface tension at surface age 20 ms” value amounted to 60.0 mN/m, the “Surface tension at surface age 50 ms” value is reported as 62.0 mN/m, the “Surface tension at surface age 100 ms” value came to 57.3 mN/m and the “Surface tension at surface age 200 ms” value is given as 56.0 mN/m. Also, the “Surface tension at surface age 400 ms” value in data set [2] (1.0 g/L) was 54.9 mN/m. In addition, in data set [2] (3.0 g/L), the “Surface tension at surface age 20 ms” value was 55.2 mN/m, the “Surface tension at surface age 50 ms” value is reported as 52.7 mN/m, the “Surface tension at surface age 100 ms” value worked out at 51.8 mN/m and the “Surface tension at surface age 200 ms” value amounted to 50.6 mN/m. For the same compound, the “Surface tension at surface age 400 ms” value in data set [2] (3.0 g/L) was determined as 51.6 mN/m. In addition, in data set [3], the solubility in water entry is “very poor”.
Consider `CC(C)=CCC/C(C)=C/CC/C(C)=C/C[N+](C)(C)[O-]` [Dimethyl, Dimethyl Farnesyl Amine Oxide], for which, in data set [4], the “C20: concentration of surfactant to reduce the surface tension of water by 20 mN/m” value is on record as 0.018 g/L, the CMC is recorded as 1.09 g/L and the Surface tension was found to be 28.7 mN/m. Further, in data set [1], the Wetting time turned out to be 28 s. In addition, in data set [5], the Foam ability result is given as “no foam at all”. Further, in data set [2] (0.3 g/L), the “Surface tension at surface age 20 ms” value was found to be 59.9 mN/m, the “Surface tension at surface age 50 ms” value worked out at 56.9 mN/m, the “Surface tension at surface age 100 ms” value turned out to be 52.9 mN/m and the “Surface tension at surface age 200 ms” value was determined as 51.5 mN/m. In data set [2] (0.3 g/L), the “Surface tension at surface age 400 ms” value was 49.5 mN/m. For the same compound, in data set [2] (1.0 g/L), the “Surface tension at surface age 20 ms” value was 43.8 mN/m, the “Surface tension at surface age 50 ms” value came to 40.7 mN/m, the “Surface tension at surface age 100 ms” value is given as 39.3 mN/m and the “Surface tension at surface age 200 ms” value came out at 38.1 mN/m. In addition, the “Surface tension at surface age 400 ms” value in data set [2] (1.0 g/L) turned out to be 36.9 mN/m. In addition, in data set [2] (3.0 g/L), the “Surface tension at surface age 20 ms” value was 35.3 mN/m, the “Surface tension at surface age 50 ms” value was 33.2 mN/m, the “Surface tension at surface age 100 ms” value amounted to 32.5 mN/m and the “Surface tension at surface age 200 ms” value was determined as 32.1 mN/m. The “Surface tension at surface age 400 ms” value in data set [2] (3.0 g/L) was determined as 31.5 mN/m.
